In one assay the target is T1, c-Met (Homo sapiens, UniProt P08581).
T1 construct: adapted to measure the phosphorylation of endogenous cellular proteins in cell lysates; endogenous in cells; host or cells: GTL-16
Put plainly: GTL-16 c-Met autophosphorylation measured by AlphaScreen detection. It counts as cell-based. The following applies: GTL-16 cells, 1 h incubation, AlphaScreen p-c-Met; read-out: GTL-16 IC50 c-Met phosphorylation. Here is the method: (§1) C-Met Dependent Cellular Assays
(§2) A number of compounds of the present invention were assayed in a c-Met dependent proliferation and phosphorylation assay as follows.
GTL-16 c-Met autophosphorylation measured by AlphaScreen® detection: the human MET-amplified gastric cancer cells GTL-16 were plated in 384-well plates at a density of 10′000 cells in 20 ul complete growth medium (DMEM high glucose supplemented with 10% (v/v) heat inactivated fetal calf serum and of 1 mM sodium pyruvate) and were incubated at […]/5% CO2/95% humidity for 20 h. The cells were washed and the 30 ul assay buffer (DMEM high glucose, 1 mM sodium pyruvate, 0.1% bovine serum albumine) was added. Compounds were diluted in 384-well compound plates to obtain 8-point serial dilutions for 40 test compounds in 90% DMSO, as well as a reference compound plus 16 high- and 16 low (inhibited) controls. These compound plates were prediluted 1:200 in assay buffer into a compound predilution plate and 10 ul of prediluted compound solution were transferred to the cell plate using a 384-well pipettor, resulting in a final DMSO concentration of 0.11%. Cells were incubated for 1 h at […]/5% CO2/95% humidity. The supernatant was removed, the cells were lysed in 25 ul of RIPA [radio immuno precipitation assay] lysis buffer supplemented with 2 mM sodium vanadate and a protease inhibitor cocktail, and cell plates were stored at −80° C.
For detection of p-c-Met, an AlphaScreen®-based assay was used. AlphaScreen® (Amplified Luminescent Proximity Homogeneous Assay, ALPHA, Perkin Elmer, U.S.A) is a non-radioactive bead-based proximity assay technology to study biomolecular interactions in a homogenous microtiter plate format. This technique has been adapted to measure the phosphorylation of endogenous cellular proteins in cell lysates by the use of specific antibody pairs against the total protein and a phospho-specific epitope. 5 ul of cell lysate was transferred to 384-well low volume Proxiplates for detection using a 384-well pipettor. First, 5 ul of a premix of an anti-c-Met antibody (0.25 ug/ml f.c.), a biotinylated PY20 antibody (phosphotyrosine antibody, 0.05 ug/ml f.c.) and AlphaScreen® Protein A-coupled acceptor beads (10 ug/ml f.c.) in RIPA buffer supplemented with 0.25% (v/w) TOP BLOCK, 2 mM sodium vanadate, and a protease inhibitor cocktail and was added, the plate was sealed, and incubated on a plate shaker for 2 hours at room temperature. Second, 2 ul of dilution buffer containing AlphaScreen® Streptavidin-coated donor beads (10 ug/ml f.c.) in RIPA buffer was added, and the plate was incubated on plate shaker as above for a further 2 hours. The plate was read on an AlphaScreen® compatible plate reader, using standard AlphaScreen® settings.

The target in assay [1] is T2, c-Met receptor tyrosine kinase, GST-c-Met(969-1390) (Homo sapiens, UniProt P08581).
T2 construct: made in house
Put plainly: EPK c-Met profiling assay (LanthaScreen TR-FRET kinase assay). It counts as biochemical. The following applies: 2 μM ATP, 0.3 nM enzyme, 60 minutes at room temperature. Here is the method: A number of compounds of the present invention were assayed in an antibody based kinase phosphorylation assay as follows.
Epk c-Met Profiling Assay:
The EPK kinase assay for c-Met receptor tyrosine kinase was developed, using the purified recombinant GST-fusion protein, containing the cytoplasmic domain of the enzyme. GST-c-Met(969-1390) was purified by affinity chromatography.
The kinase assay is based on the LanthaScreen™ technology. LanthaScreen™ is the detection of Time-Resolved Fluorescence Resonance Energy Transfer (TR-FRET) using lanthanide chelates to measure interactions between various binding partners. In a TR-FRET kinase assay, a long-lifetime lanthanide donor species is conjugated to an antibody that specifically binds to a phosphorylated product of a kinase reaction that is labeled with a suitable acceptor fluorophore. This antibody-mediated interaction brings the lanthanide donor and the acceptor into proximity such that resonance energy transfer can take place, resulting in a detectible increase in the FRET signal.
The kinase reactions were performed in 384 well microtiter plates in a total reaction volume of 9.05 μL. The assay plates were prepared with 0.05 μL per well of test compound in the appropriate test concentration, as described under “preparation of compound dilutions”. The reactions were started by combining 4.5 μL of ATP solution with 4.5 μL of enzyme-substrate mix (consisting of kinase and substrate). The final concentrations in the kinase reactions were 35 mM Tris/HCl, 1 mM DTT, 0.025% Tween20, 10 μM sodium orthovanadate, 0.25% BSA, 0.6% DMSO, 10 mM MgCl2, 3 mM MnCl2, 2 μM ATP, 50 nM Fluorescein-PolyEAY, and 0.3 nM enzyme.
The reactions were incubated for 60 minutes at room temperature and stopped by adding 4.5 μL of stop buffer (50 mM EDTA, 0.04% NP40, 20 mM Tris/HCl).
Subsequently 4.5 μL of detection mix (50 mM Tris/HCl, 2 mM DTT, 0.05% Tween20, 20 μM sodium orthovanadate, 1% BSA, 1.72 μg/mL Tb-PY20 antibody) were added to the stopped reactions. After 30 minutes incubation at room temperature, the plates were measured in a BMG Pherastar fluorescence reader. The effect of compound on the enzymatic activity was in all assays obtained from the linear progress curves and determined from one reading (end point measurement).
Preparation of Compound Dilutions
Test compounds were dissolved in DMSO (10 mM) and transferred into 1.4 mL flat bottom or V-shaped Matrix tubes carrying a unique 2D matrix. The stock solutions were stored at −20° C. if not used immediately. For the test procedure the vials were defrosted and identified by a scanner whereby a working sheet was generated that guided the subsequent working steps.
Compound dilutions were made in 96 well plates. This format enabled the assay of maximally 40 individual test compounds at 8 concentrations (single points) including 4 reference compounds. The dilution protocol included the production of “pre-dilution plates”, “master plates” and “assay plates”.
Pre-dilution plates: 96 polypropylene well plates were used as pre-dilution plates. A total of 4 pre-dilution plates were prepared including 10 test compounds each on the plate positions A1-A10, one standard compound at A11 and one DMSO control at A12. All dilution steps were done on a HamiltonSTAR robot.
Master plates: 100 μL of individual compound dilutions including standard compound and controls of the 4 “pre-dilution plates” were transferred into a 384 “master plate” including the following concentrations 1′820, 564, 182, 54.6, 18.2, 5.46, 1.82 and 0.546 μM, respectively in 90% of DMSO.
Assay plates: Identical “assay plates” were then prepared by pipetting 50 nL each of compound dilutions of the “master plates” into 384-well “assay plates” by means of a HummingBird 384-channel dispenser. These plates were used directly for the assay which was performed in a total volume of 9.05 μL. […]
(TR-FRET usually uses a lanthanide donor and a delayed reading to cut background.)

Assay [2] relates to MET-amplified gastric cancer cell line GTL-16. Put plainly: GTL-16 proliferation assay (MTS). The following applies: Homo sapiens, GTL-16 cells, 72 h incubation. It counts as cell-based. Here is the method: as §1, §2
GTL-16 proliferation assay: the MET-amplified gastric cancer cell line GTL-16 was grown under standard cell culture conditions in DMEM [Dulbecco's Modified Eagle Medium] (high glucose) supplemented with 10% heat-inactivated fetal calf serum and 2 mM L-glutamine. For proliferation assays, cells were seeded at 3000 per well in 96-well-plates. 24 h later, a 10-point dilution series of each compound (3-fold steps, ranging from […]) was prepared in DMSO. Compound were then diluted 1000-fold in growth media in two steps and added to cells in triplicates, resulting in a final volume of […] per well and maximal final compound concentrations of […]. A DMSO-only control was included. Cells were incubated for 72 h and the amount of viable cells was then measured by adding […] of MTS reagent (CellTiter 96® AQueous Non-Radioactive Cell Proliferation Assay, Promega), further incubation for 30′, and reading the optical density at 490 nm.

The structures appear in SMILES notation.

The text below walks through data of patent US8389526B2, “3-heteroarylmethyl-imidazo[1,2-b]pyridazin-6-yl derivatives” (Novartis AG, priority 2009, dated 2013).

T2 sequence (P08581 969-1390): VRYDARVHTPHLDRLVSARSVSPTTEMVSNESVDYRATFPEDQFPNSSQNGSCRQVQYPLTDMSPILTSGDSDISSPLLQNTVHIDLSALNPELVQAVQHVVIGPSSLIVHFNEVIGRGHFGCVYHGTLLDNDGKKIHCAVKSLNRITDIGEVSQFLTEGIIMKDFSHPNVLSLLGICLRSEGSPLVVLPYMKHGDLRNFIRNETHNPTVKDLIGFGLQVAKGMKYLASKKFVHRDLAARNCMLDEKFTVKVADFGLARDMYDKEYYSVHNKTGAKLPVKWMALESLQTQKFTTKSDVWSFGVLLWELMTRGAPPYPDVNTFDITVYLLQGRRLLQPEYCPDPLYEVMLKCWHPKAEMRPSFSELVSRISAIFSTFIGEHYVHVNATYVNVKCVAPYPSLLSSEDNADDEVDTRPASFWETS
T1 sequence (P08581 25-1390): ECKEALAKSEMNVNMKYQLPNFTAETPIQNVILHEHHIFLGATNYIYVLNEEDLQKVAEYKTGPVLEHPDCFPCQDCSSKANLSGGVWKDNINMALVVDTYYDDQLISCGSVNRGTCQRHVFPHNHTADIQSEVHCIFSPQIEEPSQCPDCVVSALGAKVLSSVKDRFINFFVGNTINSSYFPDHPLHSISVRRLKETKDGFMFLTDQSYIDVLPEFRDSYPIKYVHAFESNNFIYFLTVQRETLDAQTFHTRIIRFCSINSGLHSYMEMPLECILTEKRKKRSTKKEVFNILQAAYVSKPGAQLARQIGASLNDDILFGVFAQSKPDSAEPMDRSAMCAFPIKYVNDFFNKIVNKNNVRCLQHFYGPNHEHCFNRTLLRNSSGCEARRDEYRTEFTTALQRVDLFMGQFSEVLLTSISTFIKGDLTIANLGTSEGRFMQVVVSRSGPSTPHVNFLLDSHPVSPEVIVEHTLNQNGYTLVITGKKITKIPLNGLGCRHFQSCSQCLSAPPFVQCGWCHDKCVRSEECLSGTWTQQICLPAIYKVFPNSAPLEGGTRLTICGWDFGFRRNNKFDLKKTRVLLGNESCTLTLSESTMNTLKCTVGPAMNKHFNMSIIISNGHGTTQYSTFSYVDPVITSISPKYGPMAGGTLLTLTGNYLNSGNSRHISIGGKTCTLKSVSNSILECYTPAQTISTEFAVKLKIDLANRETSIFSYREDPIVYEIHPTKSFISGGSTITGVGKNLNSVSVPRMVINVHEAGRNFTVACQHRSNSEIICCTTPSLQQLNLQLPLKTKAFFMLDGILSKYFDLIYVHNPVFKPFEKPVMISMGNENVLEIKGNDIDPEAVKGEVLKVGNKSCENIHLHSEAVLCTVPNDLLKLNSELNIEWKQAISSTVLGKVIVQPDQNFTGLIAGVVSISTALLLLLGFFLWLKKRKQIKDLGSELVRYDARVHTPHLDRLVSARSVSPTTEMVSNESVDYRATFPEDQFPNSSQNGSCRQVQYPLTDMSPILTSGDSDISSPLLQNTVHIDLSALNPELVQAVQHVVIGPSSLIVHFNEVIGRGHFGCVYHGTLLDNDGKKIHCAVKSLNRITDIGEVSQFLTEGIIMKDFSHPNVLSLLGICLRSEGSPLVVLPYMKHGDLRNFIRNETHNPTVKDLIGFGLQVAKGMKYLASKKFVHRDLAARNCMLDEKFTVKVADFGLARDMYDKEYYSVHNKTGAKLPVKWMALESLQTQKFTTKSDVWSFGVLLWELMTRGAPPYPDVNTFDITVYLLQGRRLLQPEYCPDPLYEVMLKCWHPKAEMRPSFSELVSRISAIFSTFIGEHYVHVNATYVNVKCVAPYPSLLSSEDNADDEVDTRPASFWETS

Broadly, the IC50 is the point on the concentration scale where inhibition reaches its midpoint. For `C[C@@H](c1c(F)cc2ncccc2c1F)c1cnc2ccc(N3CCN(C)CC3)nn12` [Example 9, 5,7-Difluoro-6-{(S)-1-[6-(4-methyl-piperazin-1-yl)-imidazo[1,2-b]pyridazin-3-yl]-ethyl}-quinoline], the IC50 is 0.0022 µM at c-Met, 0.0029 µM in assay [1] and 0.01 µM in assay [2]. Turning to `CC1CN(c2ccc3ncc(C(C)c4c(F)cc5ncccc5c4F)n3n2)CC(=O)N1` (racemic) [Example 24, (rac)-4-{3-[1-(5,7-Difluoro-quinolin-6-yl)-ethyl]-imidazo[1,2-b]pyridazin-6-yl}-6-methylpiperazin-2-one], the figures for the IC50 (on c-Met; in assay [1]; in assay [2]) were 0.004 µM, 0.004 µM and 0.0098 µM, respectively. Turning to `O=C1CN(c2ccc3ncc(Cc4ccc5ncccc5c4F)n3n2)CCN1` [Example 44, 4-[3-(5-Fluoro-quinolin-6-ylmethyl)-imidazo[1,2-b]pyridazin-6-yl]-piperazin-2-one], the IC50 came out at 0.031 µM on c-Met, 0.014 µM in assay [1] and 0.133 µM in assay [2]. For `CC(=O)N1CCN(c2ccc3ncc(Cc4c(F)cc5ncccc5c4F)n3n2)CC1` [Example 34, 1-{4-[3-(5,7-Difluoro-quinolin-6-ylmethyl)-imidazo[1,2-b]pyridazin-6-yl]-piperazin-1-yl}-ethanone], the IC50 is 0.007 µM at c-Met, 0.01 µM in assay [1] and 0.065 µM in assay [2].

Take `CC(c1ccc2ncccc2c1F)c1cnc2ccc(N3CCNC(=O)C3)nn12` (racemic) [Example 47, (rac)-4-{3-[1-(5-Fluoro-quinolin-6-yl)-ethyl]-imidazo[1,2-b]pyridazin-6-yl}-piperazin-2-one]: the figures for the IC50 (on c-Met; in assay [1]; in assay [2]) were 0.0055 µM, 0.015 µM and 0.019 µM, respectively.

Consider `CC(c1cc2cccnc2cc1F)c1cnc2ccc(N3CCNC(=O)C3)nn12` (racemic) [Example 41, (rac)-4-{3-[1-(7-Fluoro-quinolin-6-yl)-ethyl]-imidazo[1,2-b]pyridazin-6-yl}-piperazin-2-one], for which the IC50 at c-Met is less than 0.003 µM; in assay [1], 0.023 µM; in assay [2], 0.049 µM. The molecule `O=C1CN(c2ccc3ncc(Cc4cc5cccnc5cc4F)n3n2)CCN1` [Example 38, 4-[3-(7-Fluoro-quinolin-6-ylmethyl)-imidazo[1,2-b]pyridazin-6-yl]-piperazin-2-one] had an IC50 in assay [1] of 0.031 µM.

Regarding `COC(=O)N1CCN(c2ccc3ncc(C(C)c4c(F)cc5ncccc5c4F)n3n2)CC1` (racemic) [Example 14, (rac)-4-{3-[1-(5,7-Difluoro-quinolin-6-yl)-ethyl]-imidazo[1,2-b]pyridazin-6-yl}-piperazine-1-carboxylic acid methyl ester], the IC50 in assay [1] came out at 0.0079 µM. Turning to `CC(=O)N1CCN(c2ccc3ncc(Cc4ccc5ncccc5c4F)n3n2)CC1` [Example 45, 1-{4-[3-(5-Fluoro-quinolin-6-ylmethyl)-imidazo[1,2-b]pyridazin-6-yl]-piperazin-1-yl}-ethanone], the midpoint of inhibition in assay [1], the IC50, lay at 0.17 µM. On to `C[C@H](c1c(F)cc2ncccc2c1F)c1cnc2ccc(N3CCNC(=O)C3)nn12` (single isomer, unassigned) [Example 4], for which half-maximal inhibition in assay [1] (IC50) was put at 0.68 µM. Turning to `CC(=O)N1CCN(c2ccc3ncc(Cc4c(F)cc5c(cnn5C)c4F)n3n2)CC1` [Example 55, 1-(4-(3-((4,6-difluoro-1-methyl-1H-indazol-5-yl)methyl)imidazo[1,2-b]pyridazin-6-yl)piperazin-1-yl)ethanone], half-maximal inhibition in assay [1] (IC50) was put at 0.029 µM. On to `CN1CCN(c2ccc3ncc(Cc4ccc5ncccc5c4F)n3n2)CC1=O` [Example 43, 4-[3-(5-Fluoro-quinolin-6-ylmethyl)-imidazo[1,2-b]pyridazin-6-yl]-1-methyl-piperazin-2-one], for which the IC50 in assay [1] is 0.084 µM. In assay [1], `CN1CCN(c2ccc3ncc(Cc4cc5cccnc5cc4F)n3n2)CC1=O` [Example 37, 4-[3-(7-Fluoro-quinolin-6-ylmethyl)-imidazo[1,2-b]pyridazin-6-yl]-1-methyl-piperazin-2-one] showed a concentration for half-maximal inhibition (IC50) of 0.058 µM. Consider `CC(=O)N1CCN(c2ccc3ncc(Cc4cc5cccnc5cc4F)n3n2)CC1` [Example 39, 1-{4-[3-(7-Fluoro-quinolin-6-ylmethyl)-imidazo[1,2-b]pyridazin-6-yl]-piperazin-1-yl}-ethanone], for which the midpoint of inhibition in assay [1], the IC50, lay at 0.084 µM.

For `CC(c1c(F)cc2ncccc2c1F)c1cnc2ccc(N3CCNC(=O)C3C)nn12` (racemic) [Example 18, (rac)-4-{3-[1-(5,7-Difluoro-quinolin-6-yl)-ethyl]-imidazo[1,2-b]pyridazin-6-yl}-3-methyl-piperazin-2-one], the IC50 in assay [1] was 0.0083 µM; in assay [2], 0.0092 µM. For `CC(c1c(F)cc2ncccc2c1F)c1cnc2ccc(N3CCN(C=O)CC3)nn12` (racemic) [Example 12, (rac)-4-{3-[1-(5,7-Difluoro-quinolin-6-yl)-ethyl]-imidazo[1,2-b]pyridazin-6-yl}-piperazine-1-carbaldehyde], in assay [1], the IC50 is 0.008 µM.
